Laboratory results from PubChem BioAssay (NCI).
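GI50: concentration for 50% inhibition of growth. TGI is the concentration that stops growth completely.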

Assays:
Assay in all cases: NCI tumour cell line growth inhibition, 384-well format
BT-549 breast = tested on: BT-549 breast
CCRF-CEM leukemia = tested on: CCRF-CEM leukemia
EKVX NSCLC = tested on: EKVX NSCLC
HL-60(TB) leukemia = tested on: HL-60(TB) leukemia
HOP-62 NSCLC = tested on: HOP-62 NSCLC
IGROV1 ovarian = tested on: IGROV1 ovarian
M14 melanoma = tested on: M14 melanoma
MALME-3M melanoma = tested on: MALME-3M melanoma
NCI-H522 lung = tested on: NCI-H522 lung
OVCAR-8 ovarian = tested on: OVCAR-8 ovarian
SK-MEL-5 melanoma = tested on: SK-MEL-5 melanoma
SN12C renal = tested on: SN12C renal
T-47D breast = tested on: T-47D breast

`O=C1CC[C@H](N2Cc3c(OCc4ccc(CN5CCOCC5)cc4)cccc3C2=O)C(=O)N1` was tested, and the GI50 (BT-549 breast) was > 100 µM, the TGI (BT-549 breast) was > 100 µM and the GI50 (CCRF-CEM leukemia) was > 100 µM. The TGI (CCRF-CEM leukemia) was > 100 µM, the GI50 (EKVX NSCLC) was > 100 µM and the TGI (EKVX NSCLC) was > 100 µM. The GI50 (HL-60(TB) leukemia) was 43.9 µM, the TGI (HL-60(TB) leukemia) was > 100 µM and the GI50 (HOP-62 NSCLC) was > 100 µM. The TGI (HOP-62 NSCLC) was > 100 µM, the GI50 (IGROV1 ovarian) was > 100 µM and the TGI (IGROV1 ovarian) was > 100 µM. For the same compound, the GI50 (M14 melanoma) was > 100 µM, the TGI (M14 melanoma) was > 100 µM and the GI50 (MALME-3M melanoma) was > 100 µM. The TGI (MALME-3M melanoma) was > 100 µM, the GI50 (NCI-H522 lung) was > 100 µM and the TGI (NCI-H522 lung) was > 100 µM. For the same compound, the GI50 (OVCAR-8 ovarian) was > 100 µM, the TGI (OVCAR-8 ovarian) was > 100 µM and the GI50 (SK-MEL-5 melanoma) was > 100 µM. For the same compound, the TGI (SK-MEL-5 melanoma) was > 100 µM, the GI50 (SN12C renal) was > 100 µM and the TGI (SN12C renal) was > 100 µM. The GI50 (T-47D breast) was > 100 µM and the TGI (T-47D breast) was > 100 µM.
